Measured values as given in PMC2705520, “Inactivation and Unfolding of the Hyperthermophilic Inorganic Pyrophosphatase from Thermus thermophilus by Sodium Dodecyl Sulfate” (2009).
Structures can show the parent of a compound that is named as a salt.

T1: Inorganic pyrophosphatase (T-PPase) (Thermus thermophilus, UniProt Q72H95)
T1 construct: gene ppa
T1 sequence (Q72H95 1-175): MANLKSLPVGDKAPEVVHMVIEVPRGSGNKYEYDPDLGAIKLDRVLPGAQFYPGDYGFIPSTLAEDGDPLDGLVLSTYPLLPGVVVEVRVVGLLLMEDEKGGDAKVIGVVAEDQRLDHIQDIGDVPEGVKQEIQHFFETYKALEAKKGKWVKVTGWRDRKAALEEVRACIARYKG


Tests used:
[1] = molecular target: T1, Inorganic pyrophosphatase (T-PPase); experiment: PPase activity assay (phosphomolybdate); Lineweaver-Burk and secondary replots, mixed type reversible inhibition; type: biochemical
From the text: PPase activity assay (phosphomolybdate); Lineweaver-Burk and secondary replots, mixed type reversible inhibition on Inorganic pyrophosphatase (T-PPase) | Then the apparent inhibition constant could be calculated from Equations.

[2] = substrate: O=P(O)(O)OP(=O)(O)O; experiment: purified protein; settings: Mg2+ active site cavity formed by conserved polar residues, with Mg2+ ions

| Ki [1] [mM] | Molecule | Km [2] [µM] |
| --- | --- | --- |
| 3.4 | CCCCCCCCCCCCOS(=O)(=O)O [Sodium dodecyl sulfate] |  |
|  | Inorganic pyrophosphatase (T-PPase) (Thermus thermophilus HB27) (protein) MANLKSLPVGDKAPEVVHMVIEVPRGSGNKYEYDPDLGAIKLDRVLPGAQFYPGDYGFIPSTLAEDGDPLDGLVLSTYPLLPGVVVEVRVVGLLLMEDEKGGDAKVIGVVAEDQRLDHIQDIGDVPEGVKQEIQHFFETYKALEAKKGKWVKVTGWRDRKAALEEVRACIARYKG | 420 ± 40 |
